In patent US9253987B2, “Antimicrobial agents and methods of use” (Hyprotek, Inc., priority 2010, dated 2016):

Test system: leukoplakia lesions within the oral cavity displaying invasive squamous cell carcinoma
Test: Topical treatment of oral leukoplakia / squamous cell carcinoma lesion in a human subject
Type: in vivo
Details: same human subject, before the antimicrobial agent
Description: In addition to the being diagnosed with chronic periodontitis, the subject developed leukoplakia lesions within the oral cavity displaying invasive squamous cell carcinoma with surrounding carcinoma-in-situ and dysplasia in the right mandibular gingival area. Visual inspection of the lesions appeared as white, translucent patches. […] Previously, the subject's dentists had attempted to treat the chronic periodontitis and leukoplakia with a succession of oral antibiotics, antifungal fluconazole and prolonged courses of chlorhexidine oral rinses, in addition to vigorous dental hygiene.
A single topical application of the antimicrobial agent of the present application in solution form was applied to the right lower mandibular gingival area while the right upper mandibular gingival area remained untreated. Visual inspection of the antimicrobial agent-treated area produced noticeable reduction in both the size and severity of the lesion within approximately 10 hours. Continued daily or twice-daily applications of the antimicrobial agent solution to the right lower mandibular gingival area over 12 days were effective to further reduce the lesion to approximately 1 mm. […] In contrast, the pathology of the untreated right upper mandibular gingival area continued to display signs of invasive squamous cell carcinoma and was only finally removed by surgery post treatment.

Row | SMILES | outcome of previous therapy of chronic periodontitis and leukoplakia
1 | [H]/N=C(\N/C(=N/[H])NCCCCCCNC(=N)NC(=N)Nc1ccc(Cl)cc1)Nc1ccc(Cl)cc1 [chlorhexidine] | failed significantly to improve their condition
2 | OC(Cn1cncn1)(Cn1cncn1)c1ccc(F)cc1F [fluconazole] | failed significantly to improve their condition
